Experimental data from patent EP1870419A2, “Modulators of beta-amyloid peptide aggregation comprising D-amino acids” (Praecis Pharmaceuticals Incorporated, priority 1999, dated 2000).

Tests used:
[1] = target: T1, Aβ1-40 (Homo sapiens, UniProt P05067); assay: Nucleation assay (turbidity at 405 nm, change in lag time); assay type: biochemical; conditions: for Nucleation assay data 0.3 µM / Nucleation assay data 1 µM / Nucleation assay data 3 µM: Table II; for Nucleation assay Δlag 1.25 µM / Nucleation assay Δlag […] / Nucleation assay Δlag 5 µM: Table I
T1 construct: first Aβ1-40 peptide is dissolved in HFIP
Description: The nucleation assay is employed to determine the ability of test compounds to alter (e.g. inhibit) the early events in formation of β-AP fibers from monomeric β-AP. Characteristic of a nucleated polymerization mechanism, a lag time is observed prior to nucleation, after which the peptide rapidly forms fibers as reflected in a linear rise in turbidity. The time delay before polymerization of β-AP monomer can be quantified as well as the extent of formation of insoluble fiber by light scattering (turbidity). Polymerization reaches equilibrium when the maximum turbidity reaches a plateau. The turbidity of a solution of natural β-AP in the absence or presence of various concentrations of a β-amyloid modulator compound is determined by measuring the apparent absorbance of the solution at 405nm (A405 nm) over time. The threshold of sensitivity for the measurement of turbidity is in the range of 15-20 µM β-AP. […] This assay can be performed using stirring or shaking to accelerate polymerization, thereby increasing the speed of the assay. Moreover the assay can be adapted to a 96-well plate format to screen multiple compounds.
To perform the nucleation assay, first Aβ1-40 peptide is dissolved in HFIP (1,1,1,3,3,3-Hexafluoro-2-propanol; Aldrich 10,522-8) at a concentration of 2 mg peptide/ml and incubated at room temperature for 30 min. HFIP-solubilized peptide is sonicated in a waterbath sonicator for 5 min at highest setting, then evaporated to dryness under a stream of argon. The peptide film is resuspended in anhydrous dimethylsulfoxide (DMSO) at a concentration of 6.9 mg/ml (25x concentration), sonicated for 5 min as before, then filtered through a 0.2 micron nylon syringe filter (VWR cat. No. 28196-050). Test compounds are dissolved in DMSO at a 100x concentration. Four volumes of 25x Aβ1-40 peptide in DMSO are combined with one volume of test compound in DMSO in a glass vial, and mixed to produce a 1:1 molar ratio of Aβ peptide to test compound. For different molar ratios, test compounds are diluted with DMSO prior to addition to Aβ1-40, in order to keep the final DMSO and Aβ1-40 concentrations constant. […] Ten microliters of the mixture is then added to the bottom of a well of a Coming Costar ultra low binding 96-well plate (Corning Costar, Cambridge MA; cat. No. 2500). Ninety microliters of water is added to the well, the plate is shaken on a rotary shaken at a constant speed at room temperature for 30 seconds, an additional 100 µl of 2x PTL buffer (20 mM NaH2PO4, 300 mM NaCl, pH 7.4) is added to the well, the plate is reshaken for 30 seconds and a baseline (t=0) turbidity reading is taken by measuring the apparent absorbance at 405 nm using a Bio-Rad Model 450 Microplate Reader. The plate is then returned to the shaker and shaken continuously for 5 hours. Turbidity readings are taken at 15 minute intervals.
β-amyloid aggregation in the absence of any modulators results in enhanced turbidity of the natural β-AP solution (i.e., an increase in the apparent absorbance at 405 nm over time).

[2] = system: PC12 cells; assay: Neurotoxicity assay (MTT viability), PC-12 cells; assay type: cell-based, rat; conditions: aged (5 day or 8 day) aggregates, 48 hours, read-out: EC50 for toxicity
Description: (§1) The neurotoxicity of natural β-amyloid peptide aggregates, in either the presence or absence of a β-amyloid modulator, can be tested in a cell-based assay using either a rat or human neuronally-derived cell line (PC-12 cells or NT-2 cells, respectively) and the viability indicator […]-tetrazolium bromide (MTT). (See e.g., Shearman, M.S. et al. (1994) Proc. Natl. Acad. Sci. USA 91:1470-1474; Hansen, M.B. et al. (1989) J Immun. Methods 119:203-210 for a description of similar cell-based viability assays). PC-12 is a rat adrenal pheochromocytoma cell line and is available from the American Type Culture Collection, Rockville, MD (ATCC CRL 1721). MTT (commercially available from Sigma Chemical Co.) is a chromogenic substrate that is converted from yellow to blue in viable cells, which can be detected spectrophotometrically. […]

[3] = system: NT2 cells; assay: Neurotoxicity assay (MTT viability), NT-2 cells; assay type: cell-based, human; conditions: aged (5 day or 8 day) aggregates, 48 hours, read-out: EC50 for toxicity
Description: as §1

[4] = 0.3 µM test compound, 5 µM Aβ1-40, ΔLag, ratio to control lag time
[5] = 1 µM test compound, 5 µM Aβ1-40, ΔLag, ratio to control lag time
[6] = 3 µM test compound, 5 µM Aβ1-40, ΔLag, ratio to control lag time
[7] = 1.25 µM test compound, 5 µM Aβ1-40, ratio to control lag time
[8] = 5 µM test compound, 5 µM Aβ1-40, ratio of lag time with compound to lag time of control
[9] = […] test compound, 5 µM Aβ1-40, ratio to control lag time
[10] = rows marked *: measured at 0.6 µM of compound
[11] = rows marked *: measured at 1.25 µM of compound
[12] = rows marked *: measured at […] of compound

T1 sequence (P05067 672-711): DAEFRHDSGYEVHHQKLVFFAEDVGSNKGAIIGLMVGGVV

TFA·H-(lf-D-Cha-vl)-NH2 [PPI-1318]
Nucleation assay data 0.3 µM [1, 4]: 1
Nucleation assay data 1 µM [1, 5]: 2
Nucleation assay data 3 µM [1, 6]: >5

TFA·H-(Glvffl)-NH2 [PPI-1013]
Nucleation assay Δlag 1.25 µM ([1]; rows marked #: measured at 0.6 µM of compound): 2
Nucleation assay Δlag […] ([1]; rows marked #: measured at 1.25 µM of compound): >3
Nucleation assay Δlag 5 µM ([1]; rows marked #: measured at […] of compound): 2

TFA·N-isopropyl-(Gaffvl)-NH2 [PPI-970]
Nucleation assay Δlag 1.25 µM [1, 7]: 1
Nucleation assay Δlag 5 µM [1, 8]: >5
Nucleation assay Δlag […] [1, 9]: >5

TFA·H-(lf-[F5]f-vl)-NH2 [PPI-1320]
Nucleation assay data 0.3 µM [1, 4]: 1
Nucleation assay data 1 µM [1, 5]: 3
Nucleation assay data 3 µM [1, 6]: >5

TFA·N,N-dimethyl-(Gaffvl)-NH2 [PPI-803]
Nucleation assay Δlag 1.25 µM [1, 7]: <1
Nucleation assay Δlag 5 µM [1, 8]: <1
Nucleation assay Δlag […] [1, 9]: <1

aged Aβ1-40 aggregates: Aβ1-40 peptide solution incubated at 37 °C for eight days to allow fibrils to form
EC50 [2]: 1 to 2 µM
EC50 [3]: 1 to 2 µM

TFA·N-methyl-(Gaffvl)-NH2 [PPI-968]
Nucleation assay Δlag 1.25 µM [1, 7]: 2
Nucleation assay Δlag 5 µM [1, 8]: >5
Nucleation assay Δlag […] [1, 9]: >5

TFA•N-methyl-(lvffl)-NH2 [PPI-1019]
Nucleation assay data 0.3 µM [1, 10]: 2.0
Nucleation assay data 1 µM [1, 11]: >2.5
Nucleation assay data 3 µM [1, 12]: >2.5

TFA·H-(lf-[p-F]f-vl)-NH2 [PPI-1319]
Nucleation assay data 0.3 µM [1, 4]: 1
Nucleation assay data 1 µM [1, 5]: >5
Nucleation assay data 3 µM [1, 6]: >5

2TFA·H-(lfkvl)-NH2 [PPI-1321]
Nucleation assay data 0.3 µM [1, 4]: <1
Nucleation assay data 1 µM [1, 5]: <1
Nucleation assay data 3 µM [1, 6]: <1

TFA·N,N-dimethyl-(affvl)-NH2 [PPI-913]
Nucleation assay Δlag 1.25 µM [1, 7]: 1
Nucleation assay Δlag 5 µM [1, 8]: 1
Nucleation assay Δlag […] [1, 9]: 1

TFA·N,N-diethyl-(affvl)-NH, [PPI-1006]
Nucleation assay Δlag 1.25 µM [1, 7]: 1
Nucleation assay Δlag 5 µM [1, 8]: 1
Nucleation assay Δlag […] [1, 9]: 1

TFA·H-(lvffa)-dimethylamide [PPI-993]
Nucleation assay Δlag 1.25 µM [1, 7]: 1
Nucleation assay Δlag 5 µM [1, 8]: 1
Nucleation assay Δlag […] [1, 9]: 1

TFA·N,N-diethyl-(Gaffvl)-NH2 [PPI-1005]
Nucleation assay Δlag 1.25 µM [1, 7]: 1
Nucleation assay Δlag 5 µM [1, 8]: 3
Nucleation assay Δlag […] [1, 9]: 3

2 TFA·H-lvf-NH-NH-fvl-H [PPI-1125]
Nucleation assay data 0.3 µM [1, 10]: 2.0
Nucleation assay data 1 µM [1, 11]: >2.5
Nucleation assay data 3 µM [1, 12]: >2.5

TFA·H-(lvffa)-isopropylamide [PPI-992]
Nucleation assay Δlag 1.25 µM [1, 7]: 1
Nucleation assay Δlag 5 µM [1, 8]: 3
Nucleation assay Δlag […] [1, 9]: 1

TFA·N-ethyl-(Gaffvl)-NH2 [PPI-969]
Nucleation assay Δlag 1.25 µM [1, 7]: 3
Nucleation assay Δlag 5 µM [1, 8]: >5
Nucleation assay Δlag […] [1, 9]: >5
